≈ marks a conversion by molar mass, not a printed value.
Experiments:
Danio rerio = species: Danio rerio; test: Protection against neomycin-induced hair cell death in AB zebra fish larvae assessed as increase in hair cell survival preincubated for 1 hr followed by neomycin challenge for 1 hr by DASPEI staining-based epifluorescence dissecting microscopic method; format: functional
[1] = Aqueous solubility of compound at pH 7.4; format: physicochemical
[2] = molecular target: Voltage-gated inwardly rectifying potassium channel KCNH2 (Homo sapiens, UniProt Q12809)
Chain of Voltage-gated inwardly rectifying potassium channel KCNH2 (Q12809 whole entry): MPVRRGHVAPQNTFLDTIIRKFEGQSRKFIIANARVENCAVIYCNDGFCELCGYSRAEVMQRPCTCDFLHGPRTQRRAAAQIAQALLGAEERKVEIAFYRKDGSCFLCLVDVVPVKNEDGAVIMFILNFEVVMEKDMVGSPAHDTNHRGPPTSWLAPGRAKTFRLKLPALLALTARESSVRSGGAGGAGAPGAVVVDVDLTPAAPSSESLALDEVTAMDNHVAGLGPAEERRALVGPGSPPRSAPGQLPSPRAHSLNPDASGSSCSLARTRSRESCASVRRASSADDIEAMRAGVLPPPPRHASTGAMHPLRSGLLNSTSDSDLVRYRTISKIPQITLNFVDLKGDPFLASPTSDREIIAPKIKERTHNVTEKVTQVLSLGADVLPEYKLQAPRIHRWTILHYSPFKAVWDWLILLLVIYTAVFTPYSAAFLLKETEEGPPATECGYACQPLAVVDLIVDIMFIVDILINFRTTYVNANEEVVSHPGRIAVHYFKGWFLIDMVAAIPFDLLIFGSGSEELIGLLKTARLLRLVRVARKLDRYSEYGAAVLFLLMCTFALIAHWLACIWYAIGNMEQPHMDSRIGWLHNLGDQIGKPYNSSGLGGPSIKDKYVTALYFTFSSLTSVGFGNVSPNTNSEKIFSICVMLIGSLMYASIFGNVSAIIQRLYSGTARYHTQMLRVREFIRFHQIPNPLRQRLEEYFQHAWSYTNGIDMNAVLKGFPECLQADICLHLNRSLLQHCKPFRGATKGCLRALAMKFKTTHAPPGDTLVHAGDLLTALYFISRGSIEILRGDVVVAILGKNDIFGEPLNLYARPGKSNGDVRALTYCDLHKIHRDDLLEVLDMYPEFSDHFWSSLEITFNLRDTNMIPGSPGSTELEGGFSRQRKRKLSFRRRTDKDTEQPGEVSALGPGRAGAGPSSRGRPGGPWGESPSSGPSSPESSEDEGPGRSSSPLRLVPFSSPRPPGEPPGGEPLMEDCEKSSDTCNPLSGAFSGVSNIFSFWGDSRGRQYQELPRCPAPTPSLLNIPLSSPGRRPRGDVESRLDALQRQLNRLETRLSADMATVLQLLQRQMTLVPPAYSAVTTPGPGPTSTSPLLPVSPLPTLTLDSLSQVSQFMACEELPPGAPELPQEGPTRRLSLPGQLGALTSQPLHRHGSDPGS
Description: Inhibition of human ERG expressed in HEK293 cells assessed as decrease in peak tail current amplitude by path clamp method

Row | SMILES | EC50 (Danio rerio) | further results
1 | CN1CCc2c(sc(NC(=O)Nc3ccc(Cl)cc3)c2C(N)=O)C1 | 4.7 µM | 
2 | CCCCc1nnc(NC(=O)Nc2ccc(Cl)cc2)s1 | > 25 µM | 
3 | CC(C)C[N+]1(C)CCc2c(sc(NC(=O)Nc3ccc(Cl)cc3)c2C(N)=O)C1 (centres undefined) | 0.38 µM | 
4 | CCN1CCc2c(sc(NC(=O)Nc3ccc(I)cc3)c2C(N)=O)C1 | 1.62 µM | 
5 | CC(C)(C)OC(=O)CCCN1CCc2c(sc(NC(=O)Nc3ccc(Cl)cc3)c2C(N)=O)C1 | 0.56 µM | 
6 | C[N+]1(CC2CCCCC2)CCc2c(sc(NC(=O)Nc3ccc(Cl)cc3)c2C(N)=O)C1 (centres undefined) | 0.1 µM | 
7 | CCN1CCCc2c(sc(NC(=O)Nc3ccc(Cl)cc3)c2C(N)=O)C1 | 3.98 µM | 
8 | CCN1CCc2c(sc(NC(=O)Nc3ccc(Cl)cc3)c2C(=O)OC)C1 | > 25 µM | 
9 | CC(C)(C)OC(=O)CCCCC[N+]1(C)CCc2c(sc(NC(=O)Nc3ccc(Cl)cc3)c2C(N)=O)C1 (centres undefined) | 0.11 µM | 
10 | CCN1CCc2c(sc(NC(=O)Nc3cccc(Cl)c3Cl)c2C(N)=O)C1 | 17.4 µM | 
11 | CC1CCc2nc(NC(=O)Nc3ccc(Cl)cc3)sc2C1 (centres undefined) | > 25 µM | 
12 | C[N+]1(CC2CC2)CCc2c(sc(NC(=O)Nc3ccc(Cl)cc3)c2C(N)=O)C1 (centres undefined) | 0.36 µM | 
13 | CC(C)N1CCc2c(sc(NC(=O)Nc3ccc(Cl)cc3)c2C(N)=O)C1 | 1.49 µM | 
14 | CC[N+]1(CC)CCc2c(sc(NC(=O)Nc3ccc(Cl)cc3)c2C(N)=O)C1 | 0.45 µM | 
15 | CN1[C@H]2CC[C@@H]1c1sc(NC(=O)Nc3ccc(Cl)cc3)c(C(N)=O)c1C2 (single isomer, unassigned) | 0.27 µM | 
16 | CCN1CCc2c(sc(NC(=O)Nc3ccccc3)c2C(N)=O)C1 | > 25 µM | 
17 | CCCN1CCc2c(sc(NC(=O)Nc3ccc(Cl)cc3)c2C(N)=O)C1 | 3.5 µM | 
18 | CCN1CCc2c(sc(NC(=O)Nc3ccc(Cl)cc3)c2C(=O)N2CCOCC2)C1 | > 25 µM | 
19 | CCN1CCc2c(sc(NC(=O)Nc3ccc(Cl)cc3)c2C(=O)NCCN2CCOCC2)C1 | 9.38 µM | 
20 | NC(=O)c1c(NC(=O)Nc2ccc(Cl)cc2)sc2c1CC1CCC2N1 (centres undefined) | 0.21 µM | 
21 | O=C(Cc1ccc(Cl)cc1)Nc1nc(C(=O)N2CCCCC2)cs1 | > 25 µM | 
22 | CC(C)CN1CCc2c(sc(NC(=O)Nc3ccc(Cl)cc3)c2C(N)=O)C1 | 4.51 µM | 
23 | CCN1CCc2c(sc(NC(=O)Nc3ccc(Cl)cc3)c2C(=O)NCCO)C1 | 9.4 µM | 
24 | C[N+](C)(C)C1CCc2c(sc(NC(=O)Nc3ccc(Cl)cc3)c2C(N)=O)C1 (centres undefined) | 5.87 µM | 

Row | SMILES | EC50 (Danio rerio) | further results
25 | CCN1CCc2c(ccc(NC(=O)Nc3ccc(Cl)cc3)c2C(N)=O)C1 | > 25 µM | 
26 | NC(=O)c1c(NC(=O)Nc2ccc(Cl)cc2)sc2c1CCNC2 | 3.26 µM | 
27 | NC(=O)c1c(NC(=O)Nc2ccc(Cl)cc2)sc2c1C[C@@H]1CC[C@H]2N1 | 0.27 µM | 
28 | CCN1CCc2c(sc(NC(=O)c3ccccc3)c2C(N)=O)C1 | > 25 µM | 
29 | CCN1CCc2c(sc(NC(=O)Nc3ccc(Cl)cc3)c2C#N)C1 | > 25 µM | 
30 | CCN1CCc2c(sc(NC(=O)Nc3ccc(Cl)cc3)c2C(=O)c2nc(C)no2)C1 | > 25 µM | 
31 | CCN1CCc2c(sc(NC(=O)CN3CCCCC3)c2C(N)=O)C1 | > 25 µM | 
32 | CCN1Cc2sc(NC(=O)Nc3ccc(Cl)cc3)c(C(N)=O)c2C1 | 4.34 µM | 
33 | CCN1CCc2c(sc(NC(=O)Nc3ccc(Cl)cc3)c2C(=O)NC)C1 | > 25 µM | 
34 | CCN1CCc2c(sc(NC(=O)Nc3ccc(-c4ccccc4)cc3)c2C(N)=O)C1 | 3.39 µM | 
35 | NC(=O)c1c(NC(=O)Nc2ccc(Cl)cc2)sc2c1CCN(CC1CCC1)C2 | 1.36 µM | 
36 | CC(C)(C)C[N+]1(C)CCc2c(sc(NC(=O)Nc3ccc(Cl)cc3)c2C(N)=O)C1 (centres undefined) | 0.29 µM | 
37 | CCN1CCc2c(sc(NC(=O)Nc3ccc(Cl)cc3Cl)c2C(N)=O)C1 | 11.5 µM | 
38 | CCN1CCc2c(sc(NC(=O)NCc3cccc(Cl)c3)c2C(N)=O)C1 | > 25 µM | 
39 | CCN1CCc2c(sc(NC(=O)Nc3ccc(C(F)(F)F)cc3)c2C(N)=O)C1 | 2.91 µM | 
40 | CCN1CCc2c(sc(NC(=O)Nc3ccc(Cl)cc3)c2C(=O)c2nnco2)C1 | > 25 µM | 
41 | CN1C2CCC1c1c(sc(NC(=O)Nc3ccc(Cl)cc3)c1C(N)=O)C2 (racemic) | 0.36 µM | 
42 | CN1[C@@H]2CC[C@H]1c1c(sc(NC(=O)Nc3ccc(Cl)cc3)c1C(N)=O)C2 (single isomer, unassigned) |  | solubility ([1]; aqueous medium, read-out: solubility): 76 µM (≈ 29.7 µg/mL)
43 | CCN1CCc2c(sc(NC(=O)Nc3ccc(Cl)cc3)c2C(=O)O)C1 | > 25 µM | 
44 | NC(=O)c1c(NC(=O)Nc2ccc(Cl)cc2)sc2c1CCN(CCCNC(=O)CCc1cccnc1)C2 | 0.47 µM | 
45 | CC(C)(C)OC(=O)CCCC[N+]1(C)CCc2c(sc(NC(=O)Nc3ccc(Cl)cc3)c2C(N)=O)C1 (centres undefined) | 0.14 µM | 
46 | C[N+]1(CC2CCC2)CCc2c(sc(NC(=O)Nc3ccc(Cl)cc3)c2C(N)=O)C1 (centres undefined) | 0.21 µM | 
47 | CCN1CCc2c(sc(NC(=O)C3(C(=O)Nc4ccc(Cl)cc4)CC3)c2C(N)=O)C1 | > 25 µM | 
48 | CC(C)(C)OC(=O)CN1CCc2c(sc(NC(=O)Nc3ccc(Cl)cc3)c2C(N)=O)C1 | > 25 µM | 

Row | SMILES | EC50 (Danio rerio) | further results
49 | CCN1CCc2c(sc(NC(=O)NCCN3CCOCC3)c2C(N)=O)C1 | > 25 µM | 
50 | NC(=O)c1c(NC(=O)Nc2ccc(Cl)cc2)sc2c1CCN(CC1CCCC1)C2 | 1.83 µM | 
51 | CC1(C)Cc2c(sc(NC(=O)Nc3ccc(Cl)cc3)c2C(N)=O)C(C)(C)N1 |  | solubility ([1]; buffer): 83 µM (≈ 33.8 µg/mL)
52 | CCN1CCc2c(sc(NC(=O)Nc3ccc(Br)cc3)c2C(N)=O)C1 | 3.13 µM | 
53 | Cc1c(CN2CCOCC2)sc(NC(=O)Nc2ccc(Cl)cc2)c1C(N)=O | 6.92 µM | 
54 | CCC(O)c1cc2c(cc1NC(=O)Nc1ccc(Cl)cc1)OCCO2 (centres undefined) | > 25 µM | 
55 | CCN1CCc2c(sc(NC(=O)Nc3ccc(Cl)cc3)c2C(N)=O)C1 |  | solubility ([1]; buffer): 85 µM (≈ 32.2 µg/mL)
56 | CC(C)(C)CN1CCc2c(sc(NC(=O)Nc3ccc(Cl)cc3)c2C(N)=O)C1 | 5.56 µM | 
57 | C[N+]1(C2CCc3c(sc(NC(=O)Nc4ccc(Cl)cc4)c3C(N)=O)C2)CCC1 (centres undefined) | 3.92 µM | 
58 | NC(=O)c1c(NC(=O)Nc2ccc(Cl)cc2)sc2c1CCN(CC1CCCCC1)C2 | 1.89 µM | 
59 | CN1[C@@H]2CC[C@H]1c1sc(NC(=O)Nc3ccc(Cl)cc3)c(C(N)=O)c1C2 (single isomer, unassigned) | 7.21 µM | 
60 | NC(=O)c1c(NC(=O)Nc2ccc(Cl)cc2)sc2c1CC[N+]1(CCOCC1)C2 | 1.21 µM | IC50 [2]: 12.4 µM
61 | CCC(C)(C)C1CCc2c(sc(NC(=O)Nc3ccc(Cl)cc3)c2C(N)=O)C1 (centres undefined) | > 25 µM | 
62 | CC(C)(C)OC(=O)CCCCN1CCc2c(sc(NC(=O)Nc3ccc(Cl)cc3)c2C(N)=O)C1 | 0.71 µM | 
63 | NC(=O)c1c(NC(=O)Nc2ccc(Cl)cc2)sc2c1C1CCC(C2)N1 (racemic) | 0.11 µM | 
64 | NC(=O)c1c(NC(=O)Nc2ccc(Cl)cc2)sc2c1CCCC2 | > 25 µM | 
65 | NC(=O)c1c(NC(=O)Nc2ccc(Cl)cc2)sc2c1CC[N+]1(CCCC1)C2 | 0.41 µM | IC50 [2]: 3.51 µM
66 | CC(C)(C)OC(=O)N1CCc2c(sc(NC(=O)Nc3ccc(Cl)cc3)c2C(N)=O)C1 | > 25 µM | 
67 | COCCC[N+]1(C)CCc2c(sc(NC(=O)Nc3ccc(Cl)cc3)c2C(N)=O)C1 (centres undefined) | 0.48 µM | 
68 | CC(C)[N+]1(C)CCc2c(sc(NC(=O)Nc3ccc(Cl)cc3)c2C(N)=O)C1 (centres undefined) | 0.96 µM | 
69 | CCN1CCc2c(sc(NC(=O)NCC3CCCO3)c2C(N)=O)C1 (centres undefined) | > 25 µM | 
70 | CC(C)(C)OC(=O)CCC[N+]1(C)CCc2c(sc(NC(=O)Nc3ccc(Cl)cc3)c2C(N)=O)C1 (centres undefined) | 0.25 µM | 
71 | CC[N+]1(C)CCc2c(sc(NC(=O)Nc3ccc(Cl)cc3)c2C(N)=O)C1 (centres undefined) | 1.96 µM | IC50 [2]: 3.38 µM
72 | CCN1CCc2c(sc(NC(=O)Nc3cscc3C(=O)OC)c2C(N)=O)C1 | > 25 µM | 

Row | SMILES | EC50 (Danio rerio) | further results
73 | CCN1CCc2c(sc(NC=O)c2C(N)=O)C1 | > 25 µM | 
74 | NC(=O)c1c(NC(=O)Nc2ccc(Cl)cc2)sc2c1C[C@H]1CC[C@@H]2N1 | 3.92 µM | 
75 | CCN1CCc2c(sc(NC(=O)Nc3ccc(Cl)cc3)c2C(=O)NC2COC2)C1 | > 25 µM | 
76 | CCN1CCc2sc(NC(=O)Nc3ccc(Cl)cc3)c(C(N)=O)c2C1 | 4.61 µM | 
77 | CN1[C@H]2CC[C@@H]1c1c(sc(NC(=O)Nc3ccc(Cl)cc3)c1C(N)=O)C2 | > 2.25 µM | 
78 | CCN1CCc2c(sc(NC(=O)[C@@H]3CCCN3)c2C(N)=O)C1 | > 25 µM | 
79 | COCCCN1CCc2c(sc(NC(=O)Nc3ccc(Cl)cc3)c2C(N)=O)C1 | 2.4 µM | 
80 | NC(=O)c1c(NC(=O)Nc2ccc(Cl)cc2)sc2c1CCN(CCCNC(=O)CCc1cccc3ccccc13)C2 | 0.11 µM | 
81 | CN1C2CCC1c1sc(NC(=O)Nc3ccc(Cl)cc3)c(C(N)=O)c1C2 (centres undefined) | 0.62 µM | 
82 | NC(=O)c1c(NC(=O)Nc2ccc(Cl)cc2)sc2c1[C@@H]1CC[C@H](C2)N1 | 0.03 µM | 
83 | CC(C)(C)OC(=O)CCN1CCc2c(sc(NC(=O)Nc3ccc(Cl)cc3)c2C(N)=O)C1 | 1.1 µM | 
84 | NC(=O)c1c(NC(=O)Nc2ccc(Cl)cc2)sc2c1CCN(C1CCOCC1)C2 | 2.83 µM | 
85 | CCN1CCc2sc(NC(=O)Nc3ccc(Cl)cc3)c(C(N)=O)c2CC1 | 5.8 µM | 
86 | NC(=O)c1c(NC(=O)Nc2ccc(Cl)cc2)sc2c1[C@H]1CC[C@@H](C2)N1 | 5 µM | 
87 | CCN1CCc2c(sc(N)c2C(N)=O)C1 | > 25 µM | 
88 | CC(C)(C)OC(=O)CCCCCN1CCc2c(sc(NC(=O)Nc3ccc(Cl)cc3)c2C(N)=O)C1 | 0.62 µM | 
89 | CCN1CCc2c(sc(NC(=O)Nc3cccc(C)c3)c2C(N)=O)C1 | 13 µM | 
90 | CCN1CCc2c(sc(NC(=S)Nc3ccc(Cl)cc3)c2C(N)=O)C1 | 6.57 µM | 
91 | NC(=O)c1c(NC(=O)Nc2ccc(Cl)cc2)sc2c1CCN(CC1CC1)C2 | 1.22 µM | 
92 | C[N+]1(CC2CCCC2)CCc2c(sc(NC(=O)Nc3ccc(Cl)cc3)c2C(N)=O)C1 (centres undefined) | 0.2 µM | 
93 | CCN1CCc2c(sc(NC(=O)Nc3cccc(C#N)c3)c2C(N)=O)C1 | 10.3 µM | 
94 | CCC1CCc2c(sc(NC(=O)Nc3ccc(Cl)cc3)c2C(N)=O)C1 (centres undefined) | > 25 µM | 
95 | CCN1CCc2c(sc(NC(=O)Nc3ccc4ccccc4c3)c2C(N)=O)C1 | 1.78 µM | 
96 | CCN1CCc2c(sc(NC(=O)C3(c4ccc(Cl)cc4)CC3)c2C(N)=O)C1 | > 25 µM | 

Reference: ChEMBL document CHEMBL4043273, “Phenotypic Optimization of Urea-Thiophene Carboxamides To Yield Potent, Well Tolerated, and Orally Active Protective Agents against Aminoglycoside-Induced Hearing Loss” (J Med Chem, 2018)
